From US6770741B1, “Brandykinin antagonist peptides” (Scios Inc., priority 1991, dated 2004)
Several values for one entry are separate records, joined by “and”; a condition that tells them apart may be missing. Equal entries are not always repeated. Residues, ends and D or L forms follow the SMILES beside them.

Experiments:
bradykinin receptor = molecular target: T1, bradykinin receptor (Cavia porcellus, UniProt O70526); experiment: 3H-Bradykinin binding assay, guinea pig terminal ileum homogenate; conditions: competition with 3H-bradykinin (~0.3 nM), guinea pig terminal ileum membranes, 90 min ambient temperature
T1 construct: from tissue; host or cells: guinea pig terminal ileum, washed membrane homogenate
T1 sequence (O70526 1-372): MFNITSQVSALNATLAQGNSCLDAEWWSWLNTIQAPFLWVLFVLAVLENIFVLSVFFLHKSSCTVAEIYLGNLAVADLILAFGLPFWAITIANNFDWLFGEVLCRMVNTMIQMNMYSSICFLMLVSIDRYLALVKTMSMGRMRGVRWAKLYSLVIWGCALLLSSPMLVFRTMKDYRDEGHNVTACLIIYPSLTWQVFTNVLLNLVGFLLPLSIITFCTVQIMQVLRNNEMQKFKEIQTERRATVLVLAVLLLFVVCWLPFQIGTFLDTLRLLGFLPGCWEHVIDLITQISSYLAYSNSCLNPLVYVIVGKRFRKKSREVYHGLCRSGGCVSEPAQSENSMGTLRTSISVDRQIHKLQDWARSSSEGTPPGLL
Method: Bradykinin Binding Procedure
Binding of ^3H-Bradykinin was preformed using the method of D. C. Manning, R. Vavrek, J. M. Stewart, and S. H. Synder, J. Pharmacol. Exp. Ther., (1986), 237, 504. The tissues used in the binding assay were terminal ileum from male Hartley guinea pigs (150-350 g). After dissection, tissues were placed in 20 vol of ice-cold buffer A (25 mM TES containing 0.2 g/L of 1,10-phenanthroline adjusted to pH 6.8 with ammonium hydroxide) and homogenized using a Ploytron Tissumizer at setting 6 for 15 sec. The homogenate was centrifuged at 50,000 x g for 10 min, the supernatant discarded, and the pellet resuspended in ice-cold buffer A by homogenization with the Polytron. Each tissue was homogenized and centrifuged three times. The final pellet was resuspended in buffer A containing bovine serum albumin (1 g/L) and Bacitracin (0.14 g/L) to a final volume of 170 mL/g of the original tissue weight. The binding assay consisted of 1 mL in 12×75 mm polypropylene tubes: 50 uL ^3H-bradykinin (20,000 dpm, ˜0.3 nM in the final assay volume), […] displacing drug in buffer A, and 750 uL tissue homogenate. Each tray contained tubes, to which no drug was added to measure maximum binding and tubes to which bradykinin (1 uM final concentration) had been added, to measure […]. Specific binding accounted for 96-98% total binding. Tubes were incubated for 90 min at ambient temperature. The assays were terminated by filtration over Whatman GF/B glass fiber filters that had been pretreated for 2 hours with polyethyleneimine (2 g/L) using a Brandel Tissue Harvester, followed by washing with 4×1 mL aliquots of ice-cold 50 mM Tris, pH 7.4. Filters were dissolved in Ready-Safe Fluor (Beckman) for at least 90 min before quantitation by liquid scintillation spectrometry. Kd values were determined using saturation binding and analysis by EBDA (G. A. MacPherson, J. Pharmacol. Methods, (1985), 213), followed by LIGAND (P. J. Munson, D. Rodbard, Anal. Biochem., (1980), 220). Ki values were determined using competitive analysis followed by EBDA and LIGAND. The following test results were obtained.

[1] = molecular target: T2, bradykinin receptors on intestinal (ileal longitudinal) smooth muscle (Cavia porcellus, UniProt O70526); experiment: Bradykinin antagonist activity on guinea pig ileal longitudinal smooth muscle (Schild analysis); type: cell-based; conditions: antagonism of bradykinin-induced contraction, 5 min antagonist exposure; for Kb: read-out: pA2 (converted)
T2 construct: The longitudinal muscle was separated from the underlying circular muscle; from tissue; host or cells: guinea pig ileal longitudinal smooth muscle strips
T2 sequence (O70526 1-372): T1 sequence (O70526 1-372)
Method: Determination of Bradykinin Antagonist Activity
Guinea pig intestine was removed and placed in a Petri dish containing Tyrodes solution and cut into 3-4 cm segments. The longitudinal muscle was separated from the underlying circular muscle using a cotton applicator (Paton and Zar, J. Physiol., (1968), 194:13. Muscle strips were connected to isometric force-displacement transducers (Grass or Gould) coupled to a physiograph and placed in tissue baths containing Tyrode's solution at 37° C. Each preparation was suspended under a resting tension of 2 g.
After equilibration of the tissues, appropriate volumes of bradykinin solutions were cumulatively added to the 10 mL tissue baths to increase the concentration of bradykinin in the bath step-by-step without washing out after each single dose. Higher concentrations were added only after the preceding contraction had reached a steady value. […] Antagonism of bradykinin responses in the presence of antagonist were determined by repeating the cumulative addition procedure for bradykinin after the tissue has been exposed to the antagonist for 5 minutes. Three or four different concentrations of antagonist are studied sequentially in the same preparations. Responses were expressed as a percentage of the maximum contraction elicited by bradykinin in the absence of antagonist. pA2 values were calculated by Schild analysis.

[2] = cited from earlier work
[3] = anesthetized rat, intra-aortic vs intravenous administration; cited from earlier work

| Compound | Ki (bradykinin receptor) | Kb [1] | half life in the systemic circulation [2] | destruction on a single passage through the pulmonary circulation [3] | pA2 [1] |
| --- | --- | --- | --- | --- | --- |
| CCCO[C@H]1C[C@H](C(=O)N2Cc3ccccc3C[C@H]2C(=O)N[C@@H](CCCNC(=N)N)C(=O)O)N(C(=O)[C@H](CO)NC(=O)[C@H](Cc2cccs2)NC(=O)CNC(=O)[C@@H]2C[C@@H](O)CN2C(=O)[C@@H]2CCCN2C(=O)[C@H](CCCNC(=N)N)NC(=O)[C@H](N)CCCNC(=N)N)C1 [D-Arg-Arg-Pro-4Hyp-Gly-Thi-Ser-(D-4-Hydroxyproline trans propyl ether)-Tic-Arg] | 0.59 nM | 24.5 nM | – | – | – |
| CO[C@@H]1C[C@H](C(=O)N2Cc3ccccc3C[C@H]2C(=O)N[C@@H](CCCNC(=N)N)C(=O)O)N(C(=O)[C@H](CO)NC(=O)[C@H](Cc2cccs2)NC(=O)CNC(=O)[C@@H]2C[C@@H](O)CN2C(=O)[C@@H]2CCCN2C(=O)[C@H](CCCNC(=N)N)NC(=O)[C@H](N)CCCNC(=N)N)C1 [D-Arg-Arg-Pro-4Hyp-Gly-Thi-Ser-(D-4-hydroxyproline cis methyl ether)-Tic-Arg] | 164 ± 20 nM | 5750 nM and 6310 nM | – | – | – |
| CCCO[C@@H]1C[C@H](C(=O)N2Cc3ccccc3C[C@H]2C(=O)N[C@@H](CCCNC(=N)N)C(=O)O)N(C(=O)[C@H](CO)NC(=O)[C@H](Cc2cccs2)NC(=O)CNC(=O)[C@@H]2C[C@@H](O)CN2C(=O)[C@@H]2CCCN2C(=O)[C@H](CCCNC(=N)N)NC(=O)[C@H](N)CCCNC(=N)N)C1 [D-Arg-Arg-Pro-4Hyp-Gly-Thi-Ser-(D-4-hydroxyproline cis propyl ether)-Tic-Arg] | 172 ± 45 nM | 8910 nM and 3160 nM | – | – | – |
| CO[C@H]1C[C@H](C(=O)N2Cc3ccccc3C[C@H]2C(=O)N[C@@H](CCCNC(=N)N)C(=O)O)N(C(=O)[C@H](CO)NC(=O)[C@H](Cc2cccs2)NC(=O)CNC(=O)[C@@H]2C[C@@H](O)CN2C(=O)[C@@H]2CCCN2C(=O)[C@H](CCCNC(=N)N)NC(=O)[C@H](N)CCCNC(=N)N)C1 [D-Arg-Arg-Pro-4Hyp-Gly-Thi-Ser-(D-4-hydroxyproline trans methyl ether)-Tic-Arg] | 1.54 nM | 186 nM | – | – | – |
| NC(N)=NCCC[C@H](NC(=O)[C@H](Cc1ccccc1)NC(=O)[C@@H]1CCCN1C(=O)[C@H](CO)NC(=O)[C@H](Cc1ccccc1)NC(=O)CNC(=O)[C@@H]1CCCN1C(=O)[C@@H]1CCCN1C(=O)[C@@H](N)CCCN=C(N)N)C(=O)O [bradykinin, Arg Pro Pro Gly Phe Ser Pro Phe Arg] (H-RPPGFSPFR-OH) | – | – | less than 30 seconds | 98-99% | – |
| D-Arg-Arg-Pro-4Hyp-Gly-Phe-Ser-D-Phe-Phe-Arg [reference compound] | – | – | – | – | 5.9 |
